Patent publication US8916526B2, “Flavanone derivative” (National University Corporation Okayama University, priority 2009, dated 2014)
≈ marks a conversion by molar mass, not a printed value. Like-named read-outs stand apart in the source and are kept apart here.

How the values were obtained:
MRSA N315 = experiment: In vitro infectivity assay (MIC), broth dilution, Exp. Ex. 1-1; format: cell-based, Staphylococcus aureus; details: for MIC: Staphylococcus aureus, read-out: MIC MRSA N315
Experimental: (§1) The antibacterial activities were measured based on broth dilution techniques of international standards (Clinical Laboratory Standards Institute: CLSI). The activities were shown by minimum inhibitory concentrations (MICs) determined by inoculating the above-mentioned strains at a concentration of about 10^5 […] into Mueller-Hinton broth (manufactured by Difco) containing 0.85% NaCl in 96-well microplates and incubating the plates at 35° C. for 24 hours. Measurement was carried out three times.
(§2) The antibacterial activities of the compounds of the present invention against various strains such as methicillin-resistant Staphylococcus aureus (MRSA), vancomycin intermediate-resistant Staphylococcus aureus (VISA), methicillin-sensitive Staphylococcus aureus (MSSA), and vancomycin-resistant enterococci (VRE) were examined. Of the bacteria used in MIC measurement in this test example, clinical bacteria of MRSA (OM481 strain and OM584 strain) were supplied from Okayama University Hospital (Japan). An MRSA strain N315, a vancomycin intermediate-resistant Staphylococcus aureus (VISA) strain Mu50, and a methicillin-sensitive Staphylococcus aureus (MSSA) strain FDA 209P were used as controls. Vancomycin-resistant enterococcus (VRE) strains NCTC 12201 and FN-1 were supplied from the National Institute of Infectious Disease (Japan).

VISA Mu50 = experiment: as above; format: cell-based, Staphylococcus aureus; details: for MIC: Staphylococcus aureus, read-out: MIC VISA Mu50
Experimental: as §1, §2

MRSA OM481 = experiment: as above; format: cell-based, Staphylococcus aureus; details: for MIC: Staphylococcus aureus, read-out: MIC MRSA OM481
Experimental: as §1, §2

MRSA OM58 = experiment: as above; format: cell-based, Staphylococcus aureus; details: for MIC: Staphylococcus aureus, read-out: MIC MRSA OM58
Experimental: as §1, §2

MSSA FDA 209P = experiment: as above; format: cell-based, Staphylococcus aureus; details: for MIC: Staphylococcus aureus, read-out: MIC MSS 209P
Experimental: as §1, §2

VRE NCTC12201 = experiment: as above; format: cell-based, enterococci; details: for MIC: Enterococcus, read-out: MIC VRE NCTC12201
Experimental: as §1, §2

VRE FN-1 = experiment: as above; format: cell-based, enterococci; details: for MIC: Enterococcus, read-out: MIC VRE FN-1
Experimental: as §1, §2

[1] = biological target: T1, DNA gyrase of Escherichia coli (Escherichia coli, UniProt P0AES4+P0AES6); experiment: DNA gyrase inhibition (supercoiling assay kit), Exp. Ex. 1-2; format: biochemical; details: for IC50 / Gyrase inhibitory activity IC50: E. coli DNA gyrase supercoiling, relaxed pBR322, 37° C., 30 minutes; for IC50: read-out: Gyrase inhibitory activity IC50 (converted)
T1 construct: purchased John Innes Enterprises #K0001
Experimental: As a kit for measurement of DNA gyrase of Escherichia coli, a product purchased from John Innes Enterprises (Gyrase Supercoiling assay kit #K0001) was used. Relaxed DNA was modified with gyrase into supercoiled DNA, and reaction products were separated by electrophoresis depending on the sizes of the molecular weights to examine anti-gyrase effects (IC50). One unit (1 U) of DNA gyrase and […] of relaxed pBR322 DNA were added to […] of the reaction solution, and the mixture was allowed to react at 37° C. for 30 minutes in the presence of 35 mM Tris-HCl (pH 7.5), 24 mM KCl, 4 mM MgCl2, 2 mM DTT, 1.8 mM spermidine, 1 mM ATP, 6.5% (w/v) glycerol, and 0.1 mg/ml BSA. The reactions were stopped using […] of a reaction stop solution (40% sucrose, 100 mM Tris-HCl (pH 7.5), 1 mM EDTA, 0.5 mg/ml bromophenol blue).

[2] = Acute toxicity evaluation experiment; details: ICR mice, observed over 7 days, four mice
Experimental: (§4) An acute toxicity test of the compound of the present invention was carried out using ICR mice as experimental animals.

[3] = test system: various strains such as MRSA, VISA, MSSA and VRE; experiment: In vitro infectivity assay (MIC), Exp. Ex. 1-1, strains taken together; format: cell-based, Staphylococcus aureus, enterococci; details: summary of Table 1
Experimental: as §1, §2

[4] = mouse, in vivo, 10 mg/kg
Experimental: as §4

[5] = test system: Streptococcus pneumoniae R6; experiment: In vitro infectivity assay (MIC), Exp. Ex. 2-1; format: cell-based; details: Streptococcus pneumoniae, R6, 24 h, read-out: MIC S. Pneumoniae R6
[6] = test system: Vancomycin-resistant enterococci FN-1; experiment: In vitro infectivity assay (MIC), Exp. Ex. 2-1; format: cell-based; details: Enterococcus, VRE, 24 h, read-out: MIC VRE FN-1
Procedure, shortened: (§3)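 CLSI broth microdilution in Mueller-Hinton broth with 0.85% NaCl, inoculum about 10^5 CUF/[…]. MIC read after 24 h at 35° C; each determination run three times.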

[7] = test system: Vancomycin-resistant enterococci NCTC 12201; experiment: In vitro infectivity assay (MIC), Exp. Ex. 2-1; format: cell-based; details: Enterococcus, NCTC 12201 / VRE, 24 h, read-out: MIC VRE NCTC 12201
Procedure, shortened: as §3

[8] = test system: Vancomycin intermediate-resistant Staphylococcus aureus Mu50; experiment: In vitro infectivity assay (MIC), Exp. Ex. 2-1; format: cell-based; details: Staphylococcus aureus, VISA, 24 h, read-out: MIC VISA Mu50
Procedure, shortened: as §3

[9] = test system: Methicillin sensitive S. aureus 209P; experiment: In vitro infectivity assay (MIC), Exp. Ex. 2-1; format: cell-based, Staphylococcus aureus; details: Staphylococcus aureus, 209P / MSSA, 24 h, read-out: MIC MSSA 209P
Procedure, shortened: as §3

[10] = test system: Methicillin-resistant S. aureus N315; experiment: In vitro infectivity assay (MIC), Exp. Ex. 2-1; format: cell-based, Staphylococcus aureus; details: Staphylococcus aureus, MRSA, 24 h, read-out: MIC MRSA N315
Procedure, shortened: as §3

[11] = test system: Methicillin-resistant S. aureus OM481; experiment: In vitro infectivity assay (MIC), Exp. Ex. 2-1; format: cell-based, Staphylococcus aureus; details: Staphylococcus aureus, MRSA, 24 h, read-out: MIC MRSA OM481
Procedure, shortened: as §3

[12] = test system: Methicillin-resistant S. aureus OM584; experiment: In vitro infectivity assay (MIC), Exp. Ex. 2-1; format: cell-based, Staphylococcus aureus; details: Staphylococcus aureus, MRSA, 24 h, read-out: MIC MRSA OM584
Procedure, shortened: as §3

[13] = test system: Methicillin-resistant S. aureus COL; experiment: In vitro infectivity assay (MIC), Exp. Ex. 2-1; format: cell-based; details: Staphylococcus aureus, MRSA, 24 h, read-out: MIC MRSA COL
[14] = MRSA N315, Mueller-Hinton broth, 35° C., 24 hours
[15] = VISA Mu50, Mueller-Hinton broth, 35° C., 24 hours
[16] = MRSA OM481, Mueller-Hinton broth, 35° C., 24 hours
[17] = MRSA OM58, Mueller-Hinton broth, 35° C., 24 hours
[18] = MSSA FDA 209P, Mueller-Hinton broth, 35° C., 24 hours
[19] = VRE NCTC12201, Mueller-Hinton broth, 35° C., 24 hours
[20] = VRE FN-1, Mueller-Hinton broth, 35° C., 24 hours

T1 sequence (P0AES4 whole entry, one chain of several): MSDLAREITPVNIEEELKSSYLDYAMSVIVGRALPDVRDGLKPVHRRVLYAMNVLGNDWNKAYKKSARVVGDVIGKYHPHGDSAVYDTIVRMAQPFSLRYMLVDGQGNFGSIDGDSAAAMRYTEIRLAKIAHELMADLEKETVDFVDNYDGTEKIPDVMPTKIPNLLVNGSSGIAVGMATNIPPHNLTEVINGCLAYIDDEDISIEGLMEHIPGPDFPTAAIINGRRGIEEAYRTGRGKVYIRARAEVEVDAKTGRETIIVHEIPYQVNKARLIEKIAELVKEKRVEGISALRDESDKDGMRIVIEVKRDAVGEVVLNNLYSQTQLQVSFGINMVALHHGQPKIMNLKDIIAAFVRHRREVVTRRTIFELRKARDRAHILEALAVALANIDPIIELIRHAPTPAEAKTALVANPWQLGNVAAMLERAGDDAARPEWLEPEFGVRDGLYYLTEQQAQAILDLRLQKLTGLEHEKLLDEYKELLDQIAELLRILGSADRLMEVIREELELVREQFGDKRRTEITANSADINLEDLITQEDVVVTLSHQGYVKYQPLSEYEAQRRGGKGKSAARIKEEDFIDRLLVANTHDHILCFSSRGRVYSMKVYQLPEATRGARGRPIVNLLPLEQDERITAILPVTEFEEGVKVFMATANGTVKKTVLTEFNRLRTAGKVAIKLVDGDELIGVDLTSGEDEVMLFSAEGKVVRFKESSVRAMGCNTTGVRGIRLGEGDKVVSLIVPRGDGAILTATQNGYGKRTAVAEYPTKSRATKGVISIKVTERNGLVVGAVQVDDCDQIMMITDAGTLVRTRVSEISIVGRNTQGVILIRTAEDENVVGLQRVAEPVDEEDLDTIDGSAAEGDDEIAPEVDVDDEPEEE

| Molecule | MIC (MRSA N315; [14]) | MIC (VISA Mu50; [15]) | MIC (MRSA OM481; [16]) | MIC (MRSA OM58; [17]) | MIC (MSSA FDA 209P; [18]) | MIC (VRE NCTC12201; [19]) | MIC (VRE FN-1; [20]) | melting point | IC50 [1] | MIC MRSA N315 (MRSA N315; [14]) | MIC VISA Mu50 (VISA Mu50; [15]) | MIC MRSA OM481 (MRSA OM481; [16]) | MIC MRSA OM58 (MRSA OM58; [17]) | MIC MSS 209P (MSSA FDA 209P; [18]) | MIC VRE NCTC 12201 (VRE NCTC12201; [19]) | MIC VRE FN-1 (VRE FN-1; [20]) | Antibacterial activities against the vancomycin resistant bacteria such as VRE and VISA (in words) [3] | Gyrase inhibitory activity IC50 [1] | further results |
| --- | --- | --- | --- | --- | --- | --- | --- | --- | --- | --- | --- | --- | --- | --- | --- | --- | --- | --- | --- |
| CC(=O)OC[C@H]1O[C@@H](Oc2c(-c3ccc(O)c(O)c3)oc3cc(O)cc(O)c3c2=O)[C@H](OC(C)=O)[C@@H](OC(C)=O)[C@@H]1OC(C)=O [Compound 16, 2-(3′4′-Dihydroxy)-5,7-dihydroxy-3-β-D-tetraacetylglucosyl-4H-chromen-4-one] | 128 µg/mL (≈ 202 µM) | > 128 µg/mL | 128 µg/mL (≈ 202 µM) | 128 µg/mL (≈ 202 µM) | 128 µg/mL (≈ 202 µM) | > 128 µg/mL | > 128 µg/mL | 109 to 110 °C | > 19 µM |  |  |  |  |  |  |  |  |  |  |
| CCOc1ccc(C(=O)O[C@H]2[C@H](Oc3c(-c4ccc(O)c(O)c4)oc4cc(O)cc(O)c4c3=O)O[C@H](CO)[C@@H](O)[C@@H]2OC(=O)c2ccc(OCC)cc2)cc1 [Compound 15e, 2-(3′,4′-Dihydroxy)-5,7-dihydroxy-3-β-D-(2″,3″-di-p-ethoxybenzoyloxy)glucosyl-4H-chromen-4-one] | 8 µg/mL (≈ 10.5 µM) | 16 µg/mL (≈ 21 µM) | 32 µg/mL (≈ 42.1 µM) | 32 µg/mL (≈ 42.1 µM) | 8 µg/mL (≈ 10.5 µM) | 16 µg/mL (≈ 21 µM) | 16 µg/mL (≈ 21 µM) | 122 to 123 °C | 10.8 µM |  |  |  |  |  |  |  |  |  |  |
| O=C(CCc1ccc(F)cc1)O[C@H]1[C@H](Oc2c(-c3ccc(O)c(O)c3)oc3cc(O)cc(O)c3c2=O)O[C@H](CO)[C@@H](O)[C@@H]1OC(=O)CCc1ccc(F)cc1 [Compound 15d, 2-(3′,4′-Dihydroxy)-5,7-dihydroxy-3-β-D-(2″,3″-di-p-flurophenylethylcarboxy)glucosyl-4H-chromen-4-one] |  |  |  |  |  |  |  |  |  | 0.25 µg/mL (≈ 0.327 µM) | 1 µg/mL (≈ 1.31 µM) | 2 µg/mL (≈ 2.62 µM) | 2 µg/mL (≈ 2.62 µM) | 0.25 µg/mL (≈ 0.327 µM) | 1 µg/mL (≈ 1.31 µM) | 1 µg/mL (≈ 1.31 µM) | strong antibacterial activities | 0.22 µg/mL | Mortality ([2]; 10 mg/kg for 4 consecutive days): All the mice were not dead until day 7; Mortality ([2]; 100 mg/kg for 4 consecutive days): all the mice in the group were dead on days 5 to 7 after administration; Changes in the body weights [4]: the body weights were slightly reduced from the day after administration, but the body weights of all the four mice were recovered from about day 5 after administration; Gyrase inhibitory effect compared with norfloxacin (in words) ([1]; summary of Table 2): inhibitory effect equal to or greater than that of an existing gyrase inhibitor such as norfloxacin |
| CN[C@H](CC(C)C)C(=O)N[C@H]1C(=O)N[C@@H](CC(N)=O)C(=O)N[C@H]2C(=O)N[C@H]3C(=O)N[C@H](C(=O)N[C@H](C(=O)O)c4cc(O)cc(O)c4-c4cc3ccc4O)[C@H](O)c3ccc(c(Cl)c3)Oc3cc2cc(c3O[C@@H]2O[C@H](CO)[C@@H](O)[C@H](O)[C@H]2O[C@H]2C[C@](C)(N)[C@H](O)[C@H](C)O2)Oc2ccc(cc2Cl)[C@H]1O [Vancomycin, vancomycin, reference compound] |  |  |  |  |  |  |  |  |  |  |  |  |  |  |  |  |  |  | MIC (MRSA N315; MRSA, 24 h): 0.25 µg/mL (≈ 0.173 µM); MIC (VISA Mu50; VISA, 24 h): 8 µg/mL (≈ 5.52 µM); MIC (MRSA OM481; MRSA, 24 h): 0.25 µg/mL (≈ 0.173 µM); MIC (MRSA OM58; MRSA, 24 h): 0.25 µg/mL (≈ 0.173 µM); MIC (MSSA FDA 209P; 24 h): 0.25 µg/mL (≈ 0.173 µM); MIC (VRE NCTC12201; 24 h): > 128 µg/mL; MIC (VRE FN-1; VRE, 24 h): > 128 µg/mL; MIC [5]: 0.25 µg/mL (≈ 0.173 µM); MIC [6]: > 128 µg/mL; MIC [7]: > 128 µg/mL; MIC [8]: 8 µg/mL (≈ 5.52 µM); MIC [9]: 0.25 µg/mL (≈ 0.173 µM); MIC [10]: 0.25 µg/mL (≈ 0.173 µM); MIC [11]: 0.25 µg/mL (≈ 0.173 µM); MIC [12]: 0.25 µg/mL (≈ 0.173 µM); MIC [13]: 0.25 µg/mL (≈ 0.173 µM) |
| 2-(3′,4′-Dihydroxy)-5,7-dihydroxy-3-β-D-(2″,3″-di-p-flurobenzyloxy)glucosyl-4H-chromen-4-one [Compound 15h] |  |  |  |  |  |  |  |  |  | 2 µg/mL | 2 µg/mL | 8 µg/mL | 8 µg/mL | 2 µg/mL | 8 µg/mL | 8 µg/mL | strong antibacterial activities |  |  |
| Cc1ccc(CCC(=O)O[C@H]2[C@H](Oc3c(-c4ccc(O)c(O)c4)oc4cc(O)cc(O)c4c3=O)O[C@H](CO)[C@@H](O)[C@@H]2OC(=O)CCc2ccc(C)cc2)cc1 [Compound 15c, 2-(3′,4′-Dihydroxy)-5,7-dihydroxy-3-β-D-(2″,3″-di-p-methylphenylethylcarboxy)glucosyl-4H-chromen-4-one] |  |  |  |  |  |  |  |  |  | 1 µg/mL (≈ 1.32 µM) | 1 µg/mL (≈ 1.32 µM) | 2 µg/mL (≈ 2.64 µM) | 2 µg/mL (≈ 2.64 µM) | 1 µg/mL (≈ 1.32 µM) | 4 µg/mL (≈ 5.29 µM) | 2 µg/mL (≈ 2.64 µM) | strong antibacterial activities | 3.50 µg/mL |  |
